Experimental data as given in patent publication US11524940B1, “Inhibitors of cysteine proteases and methods of use thereof” (priority 2020, dated 2022).
Like-named read-outs stand apart in the source and are kept apart here.

Legend:
SARS-CoV2 Mpro = SARS-CoV2 Mpro (Severe acute respiratory syndrome coronavirus 2 (2019-nCoV) (SARS-CoV-2), UniProt P0DTD1); assay: COVID-19 (SARS-CoV2) Mpro enzymatic assay; format: biochemical; details: 25 nM Mpro, 25 μM substrate
229E Mpro = 229E Mpro (Human coronavirus 229E (HCoV-229E), UniProt P0C6X1); assay: 229E Mpro activity; format: biochemical
Chain of 229E Mpro (P0C6X1 2966-3267 limits assumed): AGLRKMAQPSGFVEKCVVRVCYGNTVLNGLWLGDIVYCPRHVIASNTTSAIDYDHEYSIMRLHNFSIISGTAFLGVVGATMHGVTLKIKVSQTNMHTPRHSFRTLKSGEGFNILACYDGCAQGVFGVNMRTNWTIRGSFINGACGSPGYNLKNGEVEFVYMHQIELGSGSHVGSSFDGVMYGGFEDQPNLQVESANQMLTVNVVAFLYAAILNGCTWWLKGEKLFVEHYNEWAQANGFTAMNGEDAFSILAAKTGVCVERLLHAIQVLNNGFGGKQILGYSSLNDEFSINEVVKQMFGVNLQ
Description: Compounds are assayed using standard methods to assess compound activity and IC50. […] The assay buffer contains 20 mM of Tris-HCl (pH 7.3), 100 mM of NaCl, 1 mM of EDTA, 5mM of TCEP and 0.1% BSA.

Row | Compound | IC50 (SARS-CoV2 Mpro) [µM] | EC50 (229E Mpro; read-out: 229E Mpro EC50) [µM] | EC50 (229E Mpro; 229E Mpro EC50) [µM]
1 | COCCOCCOC(=O)N[C@@H](CC1CC1)C(=O)N[C@H](C#N)C[C@@H]1CCNC1=O [Compound 671, 2-(2-methoxyethoxy)ethyl N-[(1S)-2-[[(1S)-1-cyano-2-[(3S)-2-oxopyrrolidin-3-yl]ethyl]amino]-1-(cyclopropylmethyl)-2-oxo-ethyl]carbamate] | 2 to 10 | 10 to 30 | –
2 | COc1ccc(Cl)c2[nH]c(C(=O)N3CC4(CCCCC4)CC3C(=O)NC(C#N)C[C@@H]3CCCNC3=O)cc12 (single isomer, unassigned) [902 (Isomer 4)] | > 30 | > 30 | –
3 | N#C[C@H](C[C@@H]1CCNC1=O)NC(=O)C1CC2(CCC2)CN1C(=O)c1cc2ccc(Cl)c(Cl)c2[nH]1 (single isomer, unassigned) [814 (Isomer 2)] | < 2 | < 2 | –
4 | N#C[C@H](C[C@@H]1CCCNC1=O)NC(=O)C1CC2(CCCCC2)CN1C(=O)c1cc2c(Cl)cccc2[nH]1 (single isomer, unassigned) [801 (Isomer 2)] | 10 to 30 | 10 to 30 | –
5 | CC1(C)CC(C[C@@H](C#N)NC(=O)C2CC3(CCCCC3)CN2C(=O)c2cc3cccc(Cl)c3[nH]2)C(=O)N1 (single isomer, unassigned) [930 (Isomer 4)] | 2 to 10 | 10 to 30 | –
6 | N#C[C@H](C[C@@H]1CCNC1=O)NC(=O)C1CC2(CCC2)CN1C(=O)c1cc2ccc(Cl)cc2[nH]1 (single isomer, unassigned) [990 (Isomer 2)] | < 2 | < 2 | –
7 | N#C[C@H](C[C@@H]1CCNC1=O)NC(=O)C1CC2(CCC2)CN1C(=O)c1cc2cccc(Cl)c2[nH]1 (single isomer, unassigned) [988 (Isomer 2)] | < 2 | < 2 | –
8 | CC1(C)CCC(C[C@@H](C#N)NC(=O)C2CC3(CCCCC3)CN2C(=O)c2cc3cccc(Cl)c3[nH]2)C(=O)N1 (single isomer, unassigned) [928 (Isomer 3)] | < 2 | 2 to 10 | –
9 | N#C[C@H](C[C@@H]1CCCNC1=O)NC(=O)C1CC2(CCC2)CN1C(=O)c1cc2c(Cl)cccc2[nH]1 (single isomer, unassigned) [803 (Isomer 2)] | > 30 | > 30 | –
10 | COc1ccc(Cl)c2[nH]c(C(=O)N3CC4(CCCCC4)CC3C(=O)NC(C#N)C[C@@H]3CCCNC3=O)cc12 (single isomer, unassigned) [902 (Isomer 1)] | < 2 | < 2 | –
11 | N#C[C@H](C[C@@H]1CCCNC1=O)NC(=O)C1CC2(CCC2)CN1C(=O)c1cc2ccc(Cl)cc2[nH]1 (single isomer, unassigned) [791 (Isomer 1)] | > 30 | > 30 | –
12 | COc1cccc2[nH]c(C(=O)N3CC4(CCCCC4)CC3C(=O)N[C@H](C#N)CC3CCC(C)(C)NC3=O)cc12 (single isomer, unassigned) [1111 (Isomer 2)] | > 30 | > 30 | –
13 | CC1(C)CC(C[C@@H](C#N)NC(=O)C2CC3(CCCCC3)CN2C(=O)c2cc3cccc(Cl)c3[nH]2)C(=O)N1 (single isomer, unassigned) [930 (Isomer 3.2)] | 2 to 10 | 10 to 30 | –
14 | COc1ccc(Cl)c2[nH]c(C(=O)N3CC4(CCCCC4)CC3C(=O)N[C@H](C#N)C[C@@H]3CCNC3=O)cc12 (single isomer, unassigned) [882 (Isomer 2)] | 10 to 30 | 10 to 30 | –
15 | COc1ccc2[nH]c(C(=O)N3CC4(CCC4)CC3C(=O)N[C@H](C#N)C[C@@H]3CCNC3=O)cc2c1Cl (single isomer, unassigned) [886 (Isomer 1)] | > 30 | > 30 | –
16 | CC1(C)CC(C[C@@H](C#N)NC(=O)[C@H](CC2CC2)NC(=O)c2cc3cccc(Cl)c3[nH]2)C(=O)N1 (single isomer, unassigned) [1053 (Isomer 1)] | 2 to 10 | > 30 | –
17 | CC1(C)CC(C[C@@H](C#N)NC(=O)C2CC3(CCCCC3)CN2C(=O)c2cc3cccc(Cl)c3[nH]2)C(=O)N1 (single isomer, unassigned) [930 (Isomer 3.1)] | < 2 | < 2 | –
18 | COc1cccc2[nH]c(C(=O)N[C@@H](CC3CC3(F)F)C(=O)N[C@H](C#N)C[C@@H]3CCCNC3=O)cc12 (single isomer, unassigned) [1059 (Isomer 2)] | 10 to 30 | 10 to 30 | –
19 | N#C[C@H](C[C@@H]1CCCNC1=O)NC(=O)C1CC2(CCC2)CN1C(=O)c1cc2c(Cl)cccc2[nH]1 (single isomer, unassigned) [803 (Isomer 3)] | < 2 | < 2 | –
20 | COc1cccc2[nH]c(C(=O)N3CC4(CCCCC4)CC3C(=O)N[C@H](C#N)CC3CCC(C)(C)NC3=O)cc12 (single isomer, unassigned) [1111 (Isomer 1)] | < 2 | 2 to 10 | –
21 | COc1cccc2[nH]c(C(=O)N[C@@H](Cc3cccnc3)C(=O)N[C@H](C#N)C[C@@H]3CCNC3=O)cc12 [Compound 191, N-[(1S)-2-[[(1S)-1-cyano-2-[(3S)-2-oxopyrrolidin-3-yl]ethyl]amino]-2-oxo-1-(3-pyridylmethyl)ethyl]-4-methoxy-1H-indole-2-carboxamide] | 2 to 10 | > 30 | –

Row | Compound | IC50 (SARS-CoV2 Mpro) [µM] | EC50 (229E Mpro; read-out: 229E Mpro EC50) [µM] | EC50 (229E Mpro; 229E Mpro EC50) [µM]
22 | COc1cccc2[nH]c(C(=O)N[C@@H](CC3CC3)C(=O)N[C@](C)(C#N)CC3CCNC3=O)cc12 (single isomer, unassigned) [1055 (Isomer 2)] | > 30 | > 30 | –
23 | COc1ccc2[nH]c(C(=O)N3CC4(CCC4)CC3C(=O)N[C@H](C#N)C[C@@H]3CCNC3=O)cc2c1Cl (single isomer, unassigned) [886 (Isomer 2)] | < 2 | < 2 | –
24 | CC1(C)CCC(C[C@@H](C#N)NC(=O)C2CC3(CCCCC3)CN2C(=O)c2cc3cccc(Cl)c3[nH]2)C(=O)N1 (single isomer, unassigned) [928 (Isomer 4)] | 2 to 10 | > 30 | –
25 | COc1ccc(Cl)c2[nH]c(C(=O)N3CC4(CCCCC4)CC3C(=O)NC(C#N)C[C@@H]3CCCNC3=O)cc12 (single isomer, unassigned) [902 (Isomer 2)] | 2 to 10 | 10 to 30 | –
26 | COc1cccc2[nH]c(C(=O)N3C[C@H](C)C[C@H]3C(=O)N[C@H](C#N)C[C@@H]3CCNC3=O)cc12 [Compound 413] | 2 to 10 | < 2 | –
27 | COc1cccc2[nH]c(C(=O)N3CC4(CCCCC4)CC3C(=O)N[C@H](C#N)CC3CCC(C)(C)NC3=O)cc12 (single isomer, unassigned) [1111 (Isomer 3)] | < 2 | 2 to 10 | –
28 | COc1cccc2[nH]c(C(=O)N3CC4(CCCCC4)CC3C(=O)N[C@H](C#N)CC3CCC(C)(C)NC3=O)cc12 (single isomer, unassigned) [1111 (Isomer 4)] | > 30 | > 30 | –
29 | N#C[C@H](C[C@@H]1CCCNC1=O)NC(=O)C1CC2(CN1C(=O)c1cc3cccc(Cl)c3[nH]1)CC(F)(F)C2 (single isomer, unassigned) [743 (Isomer 1)] | > 30 | – | > 30
30 | COC(=O)NS(=O)(=O)n1nccc1C(=O)N[C@@H](CC1CC1)C(=O)N[C@H](C#N)C[C@@H]1CCCNC1=O [Compound 1258] | 2 to 10 | 2 to 10 | –
31 | CC1(C)CC(C[C@@H](C#N)NC(=O)C2CC3(CCCCC3)CN2C(=O)c2cc3cccc(Cl)c3[nH]2)C(=O)N1 (single isomer, unassigned) [930 (Isomer 5)] | 10 to 30 | > 30 | –
32 | N#C[C@H](C[C@@H]1CCCNC1=O)NC(=O)[C@H](CC1CC1)NC(=O)c1ccn[nH]1 [Compound 872, N-((S)-1-(((S)-1-cyano-2-((S)-2-oxopiperidin-3-yl)ethyl)amino)-3-cyclopropyl-1-oxopropan-2-yl)-1H-pyrazole-5-carboxamide] | 2 to 10 | 2 to 10 | –
33 | COc1cccc2[nH]c(C(=O)N3CC[C@H](c4ccccc4)[C@H]3C(=O)N[C@H](C#N)C[C@@H]3CCNC3=O)cc12 [Compound 163, (2S,3R)-N-((S)-1-cyano-2-((S)-2-oxopyrrolidin-3-yl)ethyl)-1-(4-methoxy-1H-indole-2-carbonyl)-3-phenylpyrrolidine-2-carboxamide] | 2 to 10 | 10 to 30 | –
34 | COc1cccc2[nH]c(C(=O)N3NCCC[C@H]3C(=O)N[C@H](C#N)C[C@@H]3CCNC3=O)cc12 [Compound 199] | 10 to 30 | > 30 | –
35 | COc1ccc(Cl)c2[nH]c(C(=O)N3CC4(CCC4)CC3C(=O)N[C@H](C#N)C[C@@H]3CCNC3=O)cc12 (single isomer, unassigned) [992 (Isomer 2)] | > 30 | > 30 | –
36 | COc1cccc2[nH]c(C(=O)N3CC4(CCC4)CC3C(=O)N[C@H](C#N)C[C@@H]3CCCNC3=O)cc12 (single isomer, unassigned) [719A (Isomer 1)] | 10 to 30 | 10 to 30 | –
37 | COc1cccc2[nH]c(C(=O)N3Cc4ccccc4C3C(=O)N[C@H](C#N)C[C@@H]3CCNC3=O)cc12 (single isomer, unassigned) [429A (Isomer 1)] | 10 to 30 | > 30 | –
38 | COc1cc(Cl)c2[nH]c(C(=O)N3CC4(CCCCC4)CC3C(=O)N[C@H](C#N)C[C@@H]3CCCNC3=O)cc2c1 (single isomer, unassigned) [1147A (Isomer 2)] | 2 to 10 | 10 to 30 | –
39 | N#C[C@H](C[C@@H]1CCNC1=O)NC(=O)C1CC2(CCC2)CN1C(=O)c1cc2ccc(Cl)c(Cl)c2[nH]1 (single isomer, unassigned) [814 (Isomer 1)] | > 30 | > 30 | –
40 | CC1(C)CC(C[C@@H](C#N)NC(=O)C2CC3(CCCCC3)CN2C(=O)c2cc3cccc(Cl)c3[nH]2)C(=O)N1 (single isomer, unassigned) [930 (Isomer 3)] | < 2 | < 2 | –
41 | N#C[C@H](C[C@@H]1CCCNC1=O)NC(=O)C1CC2(CCC2)CN1C(=O)c1cc2c(Cl)cccc2[nH]1 (single isomer, unassigned) [803 (Isomer 4)] | 2 to 10 | < 2 | –
42 | N#C[C@@]1(NC(=O)[C@H](CC2CC2)NC(=O)OCc2ccccc2)C[C@@H]2CC[C@H]1[C@@H]1C(=O)NC(=O)[C@H]21 (single isomer, unassigned) [495 (Isomer 2)] | > 30 | > 30 | –
